Test results as given in publication PMC12017579, “Phase separation of the PRPP amidotransferase into dynamic condensates promotes de novo purine synthesis in yeast” (PLOS Biology, 2025).
Numbering of substitutions follows the chain as printed.

Columns and labels:
Experiment in all cases: in vitro condensation assay, fluorescence microscopy of Ade4-mNG particles
Type in all cases: binding
Ade4∆IDR-mNG = molecular target: T1, Ade4∆IDR-mNG (Saccharomyces cerevisiae, UniProt P04046); details: inhibits self-assembly; 500 µM AMP, 0.2 µM protein, 10% PEG8K
T1 construct: C-terminal mNeonGreen and Strep-tag II kept; purified from budding yeast
T1 sequence (P04046 2-480 limits assumed): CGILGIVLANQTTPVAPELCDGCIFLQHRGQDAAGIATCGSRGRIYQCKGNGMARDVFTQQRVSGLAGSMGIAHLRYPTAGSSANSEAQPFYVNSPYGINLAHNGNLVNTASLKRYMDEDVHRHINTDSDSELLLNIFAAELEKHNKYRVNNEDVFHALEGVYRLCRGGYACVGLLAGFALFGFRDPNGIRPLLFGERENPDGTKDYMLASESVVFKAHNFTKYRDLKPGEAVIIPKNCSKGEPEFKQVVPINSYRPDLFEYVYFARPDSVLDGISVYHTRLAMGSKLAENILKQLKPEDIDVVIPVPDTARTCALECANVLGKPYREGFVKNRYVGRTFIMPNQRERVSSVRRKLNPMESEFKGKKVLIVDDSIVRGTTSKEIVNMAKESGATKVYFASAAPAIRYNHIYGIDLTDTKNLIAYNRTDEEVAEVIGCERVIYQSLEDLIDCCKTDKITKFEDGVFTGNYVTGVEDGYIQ

[1] = molecular target: T2, Ade4-mNG (yeast PPAT Ade4) (Saccharomyces cerevisiae, UniProt P04046, D373A/D374A); details: inhibits self-assembly, less than wild type; 1 mM AMP, 0.2 µM protein, 10% PEG8K
T2 construct: full length, C-terminal mNeonGreen and Strep-tag II kept; purified from budding yeast cells
T2 sequence (P04046 2-510 D373A/D374A): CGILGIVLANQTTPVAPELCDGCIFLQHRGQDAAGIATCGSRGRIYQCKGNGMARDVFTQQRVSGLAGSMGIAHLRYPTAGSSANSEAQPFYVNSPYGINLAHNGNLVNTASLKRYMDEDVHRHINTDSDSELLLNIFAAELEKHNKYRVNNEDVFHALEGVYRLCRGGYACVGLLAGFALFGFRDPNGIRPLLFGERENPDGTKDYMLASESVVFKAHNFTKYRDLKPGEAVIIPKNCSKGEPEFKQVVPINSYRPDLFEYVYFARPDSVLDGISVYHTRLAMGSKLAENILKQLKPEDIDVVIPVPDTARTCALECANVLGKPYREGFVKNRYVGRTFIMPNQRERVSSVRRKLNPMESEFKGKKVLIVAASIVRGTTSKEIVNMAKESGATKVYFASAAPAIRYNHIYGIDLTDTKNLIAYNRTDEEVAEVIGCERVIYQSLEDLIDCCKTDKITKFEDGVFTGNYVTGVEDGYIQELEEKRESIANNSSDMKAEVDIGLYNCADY

[2] = molecular target: T3, Ade4-mNG (yeast PPAT Ade4) (Saccharomyces cerevisiae, UniProt P04046); details: inhibits self-assembly, 0.2 µM protein, 10% PEG8K
T3 construct: full length, C-terminal mNeonGreen and Strep-tag II kept; purified from budding yeast cells
T3 sequence (P04046 2-510): T2 sequence (P04046 2-510 D373A/D374A) with A372D, A373D

## Nc1ncnc2c1ncn2[C@@H]1O[C@H](COP(=O)(O)O)[C@@H](O)[C@H]1O [AMP]
Ade4∆IDR-mNG
  in vitro condensation assay, fluorescence microscopy of Ade4-mNG particles: AMP also suppressed the condensation of Ade4∆IDR-mNG
[1]
  in vitro condensation assay, fluorescence microscopy of Ade4-mNG particles: AMP inhibited the assembly of Ade4-DA-mNG condensates, albeit less effectively than that of Ade4-mNG condensates
[2]; 5 mM MgCl2, pH 7.5, counteracted by PRPP
  in vitro condensation assay, fluorescence microscopy of Ade4-mNG particles: In the presence of GMP, AMP, ADP, and ATP, the condensation of Ade4-mNG was significantly reduced

## Nc1ncnc2c1ncn2[C@@H]1O[C@H](CSCC[C@H](N)C(=O)O)[C@@H](O)[C@H]1O [SAH]
[2]; weaker than AMP, 500 µM SAH, 0.5% DMSO
  in vitro condensation assay, fluorescence microscopy of Ade4-mNG particles: exerted approximately one-third the inhibitory effect of AMP

## Nc1ncnc2c1ncn2[C@@H]1O[C@H](COP(=O)(O)OP(=O)(O)OP(=O)(O)O)[C@@H](O)[C@H]1O [ATP]
[2]; 5 mM MgCl2, pH 7.5
  in vitro condensation assay, fluorescence microscopy of Ade4-mNG particles: In the presence of GMP, AMP, ADP, and ATP, the condensation of Ade4-mNG was significantly reduced

## Nc1nc2c(ncn2[C@@H]2O[C@H](COP(=O)(O)O)[C@@H](O)[C@H]2O)c(=O)[nH]1 [GMP]
[2]; 5 mM MgCl2, pH 7.5
  in vitro condensation assay, fluorescence microscopy of Ade4-mNG particles: In the presence of GMP, AMP, ADP, and ATP, the condensation of Ade4-mNG was significantly reduced

## Nc1ncnc2c1ncn2[C@@H]1O[C@H](COP(=O)(O)OP(=O)(O)O)[C@@H](O)[C@H]1O [ADP]
[2]; 5 mM MgCl2, pH 7.5
  in vitro condensation assay, fluorescence microscopy of Ade4-mNG particles: In the presence of GMP, AMP, ADP, and ATP, the condensation of Ade4-mNG was significantly reduced
